Reference: ChEMBL document CHEMBL2321681, “Design, synthesis, and evaluation of imidazo[4,5-c]pyridin-4-one derivatives with dual activity at angiotensin II type 1 receptor and peroxisome proliferator-activated receptor-γ” (Bioorg Med Chem Lett, 2013)
In brackets after ≈: the same amount, converted by molar mass.

Columns and labels:
[1] = biological target: T1, Peroxisome proliferator-activated receptor gamma (Homo sapiens, UniProt P37231); experiment: Partial agonist activity at human PPARgamma-LBD/Gal4 DNA binding domain by transactivation assay
T1 sequence (P37231 whole entry): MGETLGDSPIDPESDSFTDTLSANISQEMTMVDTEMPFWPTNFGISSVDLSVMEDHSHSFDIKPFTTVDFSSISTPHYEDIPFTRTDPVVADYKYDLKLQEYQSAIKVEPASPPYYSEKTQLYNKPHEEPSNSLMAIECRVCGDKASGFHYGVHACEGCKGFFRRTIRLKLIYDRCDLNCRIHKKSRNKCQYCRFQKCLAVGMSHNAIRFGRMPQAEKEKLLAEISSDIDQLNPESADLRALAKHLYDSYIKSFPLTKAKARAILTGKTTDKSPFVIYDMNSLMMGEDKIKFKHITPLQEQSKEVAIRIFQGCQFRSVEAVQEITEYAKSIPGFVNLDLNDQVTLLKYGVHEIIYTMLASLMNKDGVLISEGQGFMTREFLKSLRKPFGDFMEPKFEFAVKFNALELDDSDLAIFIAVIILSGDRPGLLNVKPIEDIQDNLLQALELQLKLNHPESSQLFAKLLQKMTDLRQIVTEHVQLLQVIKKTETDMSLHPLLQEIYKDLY

[2] = biological target: T2, Type-1 angiotensin II receptor (Homo sapiens, UniProt P30556)
T2 sequence (P30556 whole entry): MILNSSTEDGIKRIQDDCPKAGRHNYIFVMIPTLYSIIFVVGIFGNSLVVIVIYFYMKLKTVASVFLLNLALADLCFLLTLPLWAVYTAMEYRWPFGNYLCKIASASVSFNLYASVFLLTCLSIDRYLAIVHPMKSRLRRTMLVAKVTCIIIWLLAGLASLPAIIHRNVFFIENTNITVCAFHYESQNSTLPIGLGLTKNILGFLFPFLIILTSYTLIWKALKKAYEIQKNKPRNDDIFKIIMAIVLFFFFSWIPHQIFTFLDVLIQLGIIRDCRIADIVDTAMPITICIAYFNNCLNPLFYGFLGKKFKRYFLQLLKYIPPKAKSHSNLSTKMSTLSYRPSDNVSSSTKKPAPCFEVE

[3] = biological target: Cytochrome P450 2D6 (Homo sapiens, UniProt P10635); experiment: Inhibition of CYP2D6 (unknown origin); assay type: ADME
[4] = biological target: Cytochrome P450 3A4 (Homo sapiens, UniProt P08684); experiment: Inhibition of CYP3A4 (unknown origin); assay type: ADME
[5] = Permeability of the compound by PAMPA; assay type: ADME; details: read-out: permeability
[6] = Octanol-buffer distribution co-efficient, log D of the compound by shake-flask method; assay type: physicochemical
[7] = Intrinsic clearance in human liver microsomes
[8] = Kinetic solubility of the compound in potassium phosphate buffer at pH 6.5; assay type: physicochemical; details: read-out: Kinetic_solubility
[9] = biological target: T3, Peroxisome proliferator-activated receptor delta (Homo sapiens, UniProt Q03181); experiment: Agonist activity at PPARbeta (unknown origin)
T3 sequence (Q03181 whole entry): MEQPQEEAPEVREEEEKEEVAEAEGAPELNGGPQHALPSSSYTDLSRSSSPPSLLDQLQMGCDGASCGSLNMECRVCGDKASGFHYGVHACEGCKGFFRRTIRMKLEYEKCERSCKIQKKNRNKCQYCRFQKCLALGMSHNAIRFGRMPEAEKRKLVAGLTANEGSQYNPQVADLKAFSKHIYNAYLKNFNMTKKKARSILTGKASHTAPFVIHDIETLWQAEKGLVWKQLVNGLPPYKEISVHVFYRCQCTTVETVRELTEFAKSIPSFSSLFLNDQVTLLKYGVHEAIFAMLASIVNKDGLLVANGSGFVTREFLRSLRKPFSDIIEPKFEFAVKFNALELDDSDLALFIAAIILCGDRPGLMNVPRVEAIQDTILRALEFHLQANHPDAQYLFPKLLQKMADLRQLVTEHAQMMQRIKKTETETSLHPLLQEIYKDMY

[10] = biological target: T4, Peroxisome proliferator-activated receptor alpha (Homo sapiens, UniProt Q07869); experiment: Agonist activity at PPARalpha (unknown origin)
T4 sequence (Q07869 whole entry): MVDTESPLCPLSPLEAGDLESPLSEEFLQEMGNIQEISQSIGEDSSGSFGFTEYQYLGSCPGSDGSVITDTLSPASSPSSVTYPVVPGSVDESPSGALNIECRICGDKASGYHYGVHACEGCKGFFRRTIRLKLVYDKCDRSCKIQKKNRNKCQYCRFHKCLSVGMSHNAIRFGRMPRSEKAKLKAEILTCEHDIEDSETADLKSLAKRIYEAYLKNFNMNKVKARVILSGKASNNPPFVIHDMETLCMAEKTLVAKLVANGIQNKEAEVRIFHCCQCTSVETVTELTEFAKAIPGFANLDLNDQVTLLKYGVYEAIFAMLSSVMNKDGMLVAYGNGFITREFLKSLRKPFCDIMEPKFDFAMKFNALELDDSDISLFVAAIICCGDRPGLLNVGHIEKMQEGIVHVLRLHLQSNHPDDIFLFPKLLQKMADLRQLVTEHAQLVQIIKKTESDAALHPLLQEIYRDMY

Chain of Cytochrome P450 2D6 (P10635 whole entry): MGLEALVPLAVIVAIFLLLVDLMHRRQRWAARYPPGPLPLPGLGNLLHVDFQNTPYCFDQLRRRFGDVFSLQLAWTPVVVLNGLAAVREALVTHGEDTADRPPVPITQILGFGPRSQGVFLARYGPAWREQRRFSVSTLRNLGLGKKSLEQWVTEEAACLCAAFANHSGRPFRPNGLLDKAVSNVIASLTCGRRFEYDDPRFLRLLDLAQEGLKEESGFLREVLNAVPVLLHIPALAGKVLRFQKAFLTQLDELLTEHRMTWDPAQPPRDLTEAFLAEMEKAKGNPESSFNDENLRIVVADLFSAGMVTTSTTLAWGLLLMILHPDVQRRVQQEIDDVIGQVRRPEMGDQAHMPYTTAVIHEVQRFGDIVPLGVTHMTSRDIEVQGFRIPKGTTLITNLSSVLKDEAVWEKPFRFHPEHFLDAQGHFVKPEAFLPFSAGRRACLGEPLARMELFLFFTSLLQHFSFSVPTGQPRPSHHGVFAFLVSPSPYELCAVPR
Chain of Cytochrome P450 3A4 (P08684 whole entry): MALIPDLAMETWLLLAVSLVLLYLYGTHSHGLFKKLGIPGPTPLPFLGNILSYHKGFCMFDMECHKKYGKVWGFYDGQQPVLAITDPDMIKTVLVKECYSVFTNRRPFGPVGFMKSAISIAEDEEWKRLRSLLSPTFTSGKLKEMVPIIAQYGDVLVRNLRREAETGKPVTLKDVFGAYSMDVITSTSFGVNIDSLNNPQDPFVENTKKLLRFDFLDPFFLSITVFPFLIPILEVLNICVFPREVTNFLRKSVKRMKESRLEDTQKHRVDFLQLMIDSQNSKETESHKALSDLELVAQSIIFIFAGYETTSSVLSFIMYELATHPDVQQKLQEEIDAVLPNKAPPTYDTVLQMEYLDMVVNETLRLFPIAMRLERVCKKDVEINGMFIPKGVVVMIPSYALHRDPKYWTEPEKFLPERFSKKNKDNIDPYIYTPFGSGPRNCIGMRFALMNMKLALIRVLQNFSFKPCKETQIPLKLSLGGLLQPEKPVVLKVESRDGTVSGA

SMILES	EC50 [1] [nM]	IC50 [2] [nM]	also measured
CCc1nc2ccn(Cc3cccnc3)c(=O)c2n1[C@H]1CCc2cc(-c3ccccc3-c3nnn[nH]3)ccc21	3640	45.2	–
CCc1nc2ccn(Cc3ccncc3)c(=O)c2n1[C@H]1CCc2cc(-c3ccccc3-c3nnn[nH]3)ccc21	> 25000	250	–
CCc1nc2ccn(Cc3c(C)noc3C)c(=O)c2n1[C@H]1CCc2cc(-c3ccccc3-c3nnn[nH]3)ccc21	4470	63.4	–
CCc1nc2cc[nH]c(=O)c2n1[C@H]1CCc2cc(-c3ccccc3-c3nnn[nH]3)ccc21	> 100000	593	–
CCc1nc2ccn(CC(=O)N(C)C)c(=O)c2n1[C@H]1CCc2cc(-c3ccccc3-c3nnn[nH]3)ccc21	> 100000	24.4	–
CCc1nc2ccn(CC(=O)OCc3ccccc3)c(=O)c2n1[C@H]1CCc2cc(-c3ccccc3-c3nnn[nH]3)ccc21	1250	19.8	–
CCc1nc2ccn(CC(=O)O)c(=O)c2n1[C@H]1CCc2cc(-c3ccccc3-c3nnn[nH]3)ccc21	> 100000	348	–
CCc1nc2ccn(CC(C)C)c(=O)c2n1[C@H]1CCc2cc(-c3ccccc3-c3nnn[nH]3)ccc21	1710	19.4	–
CCc1nc2ccn(CC3CCCCC3)c(=O)c2n1[C@H]1CCc2cc(-c3ccccc3-c3nnn[nH]3)ccc21	942	41	–
CCc1nc2ccn(Cc3ccccc3C#N)c(=O)c2n1[C@H]1CCc2cc(-c3ccccc3-c3nnn[nH]3)ccc21	685	13.5	inhibition (INH) [3]: 11%; solubility kinetic [8]: 11.7 µM (≈ 6.3 µg/mL); inhibition (INH) [4]: 31%; Papp [5]: 10.7 ×10⁻⁶ cm/s; logD [6]: 1.7; microsomal CLint [7]: 14 µL/min/mg
CCc1nc2ccn(Cc3ccccn3)c(=O)c2n1[C@H]1CCc2cc(-c3ccccc3-c3nnn[nH]3)ccc21	3580	63.8	–

Compounds with a lower EC50 [1], results first:

EC50 [1] [nM]	IC50 [2] [nM]	SMILES	also measured
449	81.6	CCc1nc2ccn(Cc3cccc(C(F)(F)F)c3)c(=O)c2n1[C@H]1CCc2cc(-c3ccccc3-c3nnn[nH]3)ccc21	–
295	7	CCc1nc2c(C)cn(Cc3ccccc3C#N)c(=O)c2n1[C@H]1CCc2cc(-c3ccccc3-c3nnn[nH]3)ccc21	inhibition (INH) [3]: 0%; solubility kinetic [8]: 5.2 µM (≈ 2.87 µg/mL); inhibition (INH) [4]: 0%; Papp [5]: 19 ×10⁻⁶ cm/s; logD [6]: 2.5; microsomal CLint [7]: 20.7 µL/min/mg
292	12.7	CCc1nc2ccn(Cc3ccccc3)c(=O)c2n1[C@H]1CCc2cc(-c3ccccc3-c3nnn[nH]3)ccc21	EC50 [9]: > 50000 nM; EC50 [10]: > 50000 nM
187	94.1	CCc1nc2ccn(Cc3ccccc3C(F)(F)F)c(=O)c2n1[C@H]1CCc2cc(-c3ccccc3-c3nnn[nH]3)ccc21	–
159	67.4	CCc1nc2ccn(Cc3cccc(F)c3)c(=O)c2n1[C@H]1CCc2cc(-c3ccccc3-c3nnn[nH]3)ccc21	–
108	36.9	CCc1nc2ccn(Cc3cccc(C)c3)c(=O)c2n1[C@H]1CCc2cc(-c3ccccc3-c3nnn[nH]3)ccc21	–
103	37.7	CCc1nc2ccn(Cc3ccccc3F)c(=O)c2n1[C@H]1CCc2cc(-c3ccccc3-c3nnn[nH]3)ccc21	–
97	5.1	CCc1nc2ccn(Cc3ccccc3C)c(=O)c2n1[C@H]1CCc2cc(-c3ccccc3-c3nnn[nH]3)ccc21	inhibition (INH) [3]: 6%; solubility kinetic [8]: 3.5 µM (≈ 1.85 µg/mL); inhibition (INH) [4]: 14%; Papp [5]: 3.6 ×10⁻⁶ cm/s; logD [6]: 2.6; microsomal CLint [7]: 32.6 µL/min/mg
42	6.8	CCc1nc2c(C)cn(Cc3ccccc3C)c(=O)c2n1[C@H]1CCc2cc(-c3ccccc3-c3nnn[nH]3)ccc21	inhibition (INH) [3]: 4.5%; inhibition (INH) [4]: 3.5%; Papp [5]: 7 ×10⁻⁶ cm/s; logD [6]: 2.9; microsomal CLint [7]: 37.5 µL/min/mg
20	29.3	CCc1nc2ccn(Cc3ccccc3OC(F)(F)F)c(=O)c2n1[C@H]1CCc2cc(-c3ccccc3-c3nnn[nH]3)ccc21	–
